Measurements from patent US20080280860A1, “Use of Vitamin D Compounds to Treat Endometriosis” (BioXell S.p.A., priority 2005, published 2008).

Experiments:
[1] = tested on: Eutopic endometrium stromal cells; test: Proliferation of endometrial stromal cells in vitro (CyQuant), eutopic; format: cell-based; details: 1 uM-0.1 nM, 48-96 hours; FIG. 2A
Procedure: (§1) Tissue was gently minced into small pieces (1 to 2 mm^3) and incubated at 37° C. for 1 h with 0.1% type A collagenase. At the end of the incubation, single stromal cells were separated from large clumps of epithelium by a 10 min. period of differential sedimentation at unity gravity. The top 8 ml of medium, containing predominantly stromal cells, were then slowly removed and the cells were collected by centrifugation. The stromal-enriched fraction was washed twice in culture medium and allowed to adhere selectively to tissue culture dishes for 15 min.
Thereafter, nonattached epithelial cells still present were removed and a purified stromal preparation was obtained on the surface of the culture dishes.
The cells were maintained in DMEM supplemented with 10% Fetal Bovine Serum (SIGMA) and 100 U/ml penicillin, 100 ug/ml streptomycin (GIBCO cat. no. 15140-122).
When the stromal cells were grown to confluence, were washed in PBS and then trypsinized using 1× trypsin/EDTA solution (PromoCell cat. no. C-41002). […] The proliferation was determined with CyQuant Cell Proliferation Assay (Molecular Probe cat. no. C7026). […]
The fluorescence was determined using a fluorescence microplate reader with filters appropriate for ˜480 nm excitation and ˜520 nm emission.

endometriotic cells = test: Cell adhesion of endometrial stromal cells from treated animals; format: in vivo; details: animals treated 100 ug/kg orally once a day for two days; 5 subjects per group; FIG. 9
Procedure: Paired animals were treated wth Compound A (100 ug/kg) orally once a day, for two days. The animals were then sacrificed and uterus horns were removed. Myometrium was removed by scraping with a scalpel blade and remaining endometrial tissue was reduced to small fragments with scissors.
as §1, with “was” for “was gently”, “dumps” for “clumps”, “The stromal-enriched fraction was washed twice in culture medium and allowed to adhere selectively to tissue culture dishes for 15 min.” left out
Polystyrene 96-well plates (Costar) were coated with 50 ul/well of 8 mg/ml extracellular matrix (ECM) (Sigma, USA), and left uncovered in a laminar flow hood overnight to allow evaporation. […] The sample fluorescence in each well was measured using a fluorescence microplate reader with filters appropriate for 480 nm excitation and 520 nm emission maxima. Results were expressed as the percentage of total cells assuming that the adhesion of cells in the control was 100%. The percentage of adhesion was determined using the formula: (Abs after being rinsed with PBS/Abs no rinse)×100%. […]

[2] = tested on: human stromal endometrial cells; test: Cell chemotaxis assay (modified Boyden chamber); format: cell-based; details: FIG. 10
Procedure: as §1, with “Human stromal cell preparation: tissue was gently” for “Tissue was gently”, “from large dumps of epithelium” for “from large clumps of epithelium”, “15 min. Thereafter, non-attached epithelial cells still present were removed and a purified stromal preparation was obtained on the surface of the culture dishes.” for “15 min.”
Endometrial stromal cells migration was evaluated by means of chemotaxis experiments in a 48-well modified Boyden chamber. With the migration assay, we assessed the ability of the cells to migrate toward a chemo-attractant on a two-dimensional substrate (in our case, collagen type IV). […] The cells that had migrated to the lower side of the filter were stained with Diff-Quick stain (VWR Scientific Products, Bridgeport, N.J.), and 5-8 unit fields per filter were counted at 160× magnification using a Zeiss microscope. […]

In the case of C=C1/C(=C\C=C2/CCC[C@]3(C)C([C@@H](C)C/C=C/C(O)(CC)CC)=CC[C@@H]23)C[C@@H](O)C[C@@H]1F [Compound A, 1-alpha-fluoro-25-hydroxy-16,23E-diene-26,27-bishomo-20-epi-cholecalciferol], the “cell proliferation, Eutopic endometrium” value [1] is reported as “reduction in cell proliferation”, the “adhesion of endometriotic cells” value (endometriotic cells) is reported as “dramatically reduce the adhesion” and the “reduction in migration with estrogen stimulation” value ([2]; 1 uM pretreatment 30 min, then β-Estradiol 24 h) is reported as “approximately 50%”. The “basal condition of migration” value ([2]; 1 uM, without estrogen stimulation) was “No effect”.
